Measured values taken from patent US20110269699A1, “CANCER THERAPY” (priority 2008, published 2011).

Assays:
Format in all cases: cell-based, mouse
Eμ-myc lymphomas = experiment: In vitro cell death analysis (propidium iodide staining, loss of MOMP)
Procedure: (§1) Three different primary Eμ-myc lymphomas overexpressing Bcl-2 and control vector-transduced Eμ-myc cells were tested for sensitivity to the histone deacetylase inhibitors (HDACi) oxamflatin and romidepsin.
(§2) The primary function of prosurvival Bcl-2 proteins is to inhibit the activity of Bak and Bax proteins and thereby protect the mitochondrial membrane from damage (Cory et al., Nat. Rev. Cancer 2:647-656, 2002). To determine if the induction of apoptosis mediated by romidepsin in 4242Eμ-myc/Bcl-2 and 229Eμ-myc/Bcl-2 lymphomas was via perturbation of the mitochondrial membrane or through some other mechanism, HDACi-induced mitochondrial outer membrane permeabilization (MOMP) was quantitated by staining with tetramethylrhodamine ethyl ester (Molecular Probes).
(§3) […] Viability of cells as measured by trypan blue exclusion assay, propidium iodide uptake, Annexin V staining, cell cycle analysis, or tetramethylrhodamine ethyl ester staining were done as described (Lindemann et al., Proc. Nat. Acad. Sci. USA 104:8071-8078, 2007).

Eμ-myc/Bcl-2 lymphomas = experiment: as above
Procedure: as §1, §2, §3

[1] = system: acetylated histones H3 and H4; experiment: Western blot analysis of histone acetylation status; conditions: 4242Eμ-myc lymphomas; 3.0 nmol/L romidepsin, 0.1 mmol/L oxamflatin; 24-h time course
Procedure: Eμ-myc lymphoma cells were lysed in lysis buffer [0.15 mol/L NaCl, 10 mmol/L Tris-HCl (pH 7.4), 5 μmol/L EDTA, 1% Triton X-100] supplemented with protease inhibitors (leupeptin, pepstatin, and phenylmethylsulfonyl fluoride; Sigma-Aldrich) as described previously (Lindemann et al., Proc. Nat. Acad. Sci. USA 104:8071-8078, 2007). Proteins (30-50 μg) were separated on 10% or 15% SDS polyacrylamide gels electroblotted onto Immobilon-P […] membranes (Millipore). Membranes were incubated with the following antibodies: anti-mouse Bcl-2 (BD PharMingen), anti-mouse Bcl-XL (BD PharMingen), anti-mouse Bcl-w (Chemicon Australia), anti-mouse Mcl-1 (Rockland), anti-mouse A1 (Sapphire Biosciences), anti-Flag tag (Sigma-Aldrich), anti-acetylated histone H3 and antiacetylated histone H4 (Upstate Biosystems), anti-β actin (Sigma-Aldrich), and anti-tubulin (Sigma-Aldrich) overnight at 4° C. followed by subsequent incubation with horseradish peroxidase-conjugated secondary antibodies (DAKO) Immunoreactive bands were visualized by enhanced chemiluminescence (Amersham).

4242Eμ-myc lymphomas = experiment: In vitro cell death analysis (parental control of the Bcl-XL experiment)
Procedure: (§4) To determine if increased expression of Bcl-XL could confer resistance to romidepsin, 4242Eμ-myc/Bcl-XL lymphomas were produced and tested for sensitivity to HDACi.
Eμ-myc lymphoma cells (5×10^5/mL) were incubated in the presence of the indicated compounds for 20 h in 1 mL cell culture medium in 24-well plates (Greiner Bio-One). Viability of cells as measured by trypan blue exclusion assay, propidium iodide uptake, Annexin V staining, cell cycle analysis, or tetramethylrhodamine ethyl ester staining were done as described (Lindemann et al., Proc. Nat. Acad. Sci. USA 104:8071-8078, 2007).

[2] = system: 226Eμ-myc/Bcl-2 lymphomas; experiment: Cell cycle analysis of Eμ-myc/Bcl-2 cells treated with HDACi; conditions: 226/Bcl-2
Procedure: (§5) Next, the cell cycle profiles of Eμ-myc/Bcl-2 lymphomas treated with oxamflatin and romidepsin over 3 days were assessed.
as §3

[3] = system: 4242Eμ-myc/Bcl-2 lymphomas; experiment: as above; conditions: 4242/Bcl-2
Procedure: as §5, §3

[4] = system: 4242Eμ-myc/Bcl-XL lymphomas; experiment: In vitro cell death analysis of Bcl-XL overexpressing lymphomas
Text: as §4, §3

[5] = increasing concentrations over 24 h

## Oxamflatin
Eμ-myc lymphomas; 24-h dose-response assay
  cell killing (outer cell membrane damage, loss of mitochondrial membrane potential): could effectively kill
Eμ-myc lymphomas; 24-h treatment
  concentration of HDACi required to kill ˜70% of Eμ-myc lymphomas following 24-h treatment: 0.1 µmol/L
Eμ-myc/Bcl-2 lymphomas; 0.1 μmol/L, 72 h of continuous exposure
  cell killing in time course: conferred resistance to oxamflatin
Eμ-myc/Bcl-2 lymphomas; 24-h dose-response assay, Bcl-2 overexpressing
  cell killing (outer cell membrane damage, loss of mitochondrial membrane potential): but not Eμ-myc/Bcl-2 lymphomas
[1]
  acetylation of histones H3 and H4: induced equivalent acetylation of histones H3 and H4
4242Eμ-myc lymphomas; [5]
  plasma membrane integrity and mitochondrial function: dose-dependent loss of plasma membrane integrity and mitochondrial function
4242Eμ-myc lymphomas; increasing doses
  cell cycle analysis: DNA fragmentation: DNA fragmentation occurred
4242Eμ-myc lymphomas; parental Eμ-myc lymphomas, within the first 24 h, 3 nmol/L romidepsin or 0.1 μmol/L oxamflatin
  cell killing in time course: effectively killed
[2]; 24 hr
  % G1: 50.0%
  % G2/M: 28.8%
  % S phase: 14.4%
  % subG1: 2.7%
[2]; 48 hr
  % G1: 62.6%
  % G2/M: 21.4%
  % S phase: 10.8%
  % subG1: 2.6%
[2]; 72 hr
  % G1: 78.2%
  % G2/M: 12.0%
  % S phase: 2.5%
  % subG1: 6.5%
[3]; 24 hr
  % G1: 59.4%
  % G2/M: 18.0%
  % S phase: 8.2%
  % subG1: 8.4%
[3]; 48 hr
  % G1: 62.3%
  % G2/M: 15.3%
  % S phase: 8.4%
  % subG1: 5.9%
[3]; 72 hr
  % G1: 66.7%
  % G2/M: 15.8%
  % S phase: 9.7%
  % subG1: 4.6%
[4]; [5]
  plasma membrane integrity and mitochondrial function: unaffected
[4]; increasing doses
  cell cycle analysis: arrested in the G1 phase
